Where two headings read alike, the source gives them in different places.
Key:
[1] = test system: EGFR Del19/T790M/C797S (H1975-clone #28); assay: EGFR degradation HTRF assay, H1975-clone #28 DTC cells; type: cell-based
Summary of the method: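 H1975 clones stably overexpressing mutant EGFR, with endogenous EGFR knocked out by sgRNA and homozygosity confirmed by sequencing, were treated 16h at 37° C. with compounds in 0.2% DMSO (top final 10 uM, 5-fold, 8 doses). Lysates were read by HTRF (665/620 nm); DC50 and Dmax came from fitting % degradation versus DMSO control.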

[2] = target: T1, EGFR L858R/T790M/C797S (BaF3-LTC cells) (Homo sapiens, UniProt P00533, C797S/L858R/T790M); assay: EGFR degradation HTRF assay, BaF3-LTC cells; type: cell-based
T1 construct: expressed in transfected cells; host or cells: BaF3
Summary of the method: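 Cells treated 16 h at 37 °C, 5% CO2 in medium with 0.2% DMSO; top final concentration 10 uM, 5-fold dilution, 8 doses. Lysates read by HTRF (665/620 nm); degradation % versus DMSO high control, DC50 from four-parameter fit, Dmax as maximal degradation.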

[3] = H1975 # 28 DTC cells; EGFR degradation, IC50 (DC50) from curve fit; read-out: DC50(nM) H1975 # 28 DTC
[4] = H1975 # 28 DTC cells; maximum percentage of inhibition (degradation)
[5] = BaF3-LTC cells; EGFR degradation, IC50 (DC50) from curve fit; read-out: DC50(nM) BaF3-LTC
[6] = BaF3-LTC cells; maximum percentage of inhibition (degradation); read-out: Dmax (%) BaF3-LTC
[7] = read-out: DC50(nM) H1975 # 28 DTC; H1975 # 28 DTC cells; EGFR degradation, IC50 (DC50) from curve fit
[8] = read-out: DC50(nM) BaF3-LTC; BaF3-LTC cells; EGFR degradation, IC50 (DC50) from curve fit
[9] = read-out: Dmax (%) BaF3-LTC, BaF3-LTC cells; maximum percentage of inhibition (degradation)

T1 sequence (P00533 25-1210 T790M/C797S/L858R): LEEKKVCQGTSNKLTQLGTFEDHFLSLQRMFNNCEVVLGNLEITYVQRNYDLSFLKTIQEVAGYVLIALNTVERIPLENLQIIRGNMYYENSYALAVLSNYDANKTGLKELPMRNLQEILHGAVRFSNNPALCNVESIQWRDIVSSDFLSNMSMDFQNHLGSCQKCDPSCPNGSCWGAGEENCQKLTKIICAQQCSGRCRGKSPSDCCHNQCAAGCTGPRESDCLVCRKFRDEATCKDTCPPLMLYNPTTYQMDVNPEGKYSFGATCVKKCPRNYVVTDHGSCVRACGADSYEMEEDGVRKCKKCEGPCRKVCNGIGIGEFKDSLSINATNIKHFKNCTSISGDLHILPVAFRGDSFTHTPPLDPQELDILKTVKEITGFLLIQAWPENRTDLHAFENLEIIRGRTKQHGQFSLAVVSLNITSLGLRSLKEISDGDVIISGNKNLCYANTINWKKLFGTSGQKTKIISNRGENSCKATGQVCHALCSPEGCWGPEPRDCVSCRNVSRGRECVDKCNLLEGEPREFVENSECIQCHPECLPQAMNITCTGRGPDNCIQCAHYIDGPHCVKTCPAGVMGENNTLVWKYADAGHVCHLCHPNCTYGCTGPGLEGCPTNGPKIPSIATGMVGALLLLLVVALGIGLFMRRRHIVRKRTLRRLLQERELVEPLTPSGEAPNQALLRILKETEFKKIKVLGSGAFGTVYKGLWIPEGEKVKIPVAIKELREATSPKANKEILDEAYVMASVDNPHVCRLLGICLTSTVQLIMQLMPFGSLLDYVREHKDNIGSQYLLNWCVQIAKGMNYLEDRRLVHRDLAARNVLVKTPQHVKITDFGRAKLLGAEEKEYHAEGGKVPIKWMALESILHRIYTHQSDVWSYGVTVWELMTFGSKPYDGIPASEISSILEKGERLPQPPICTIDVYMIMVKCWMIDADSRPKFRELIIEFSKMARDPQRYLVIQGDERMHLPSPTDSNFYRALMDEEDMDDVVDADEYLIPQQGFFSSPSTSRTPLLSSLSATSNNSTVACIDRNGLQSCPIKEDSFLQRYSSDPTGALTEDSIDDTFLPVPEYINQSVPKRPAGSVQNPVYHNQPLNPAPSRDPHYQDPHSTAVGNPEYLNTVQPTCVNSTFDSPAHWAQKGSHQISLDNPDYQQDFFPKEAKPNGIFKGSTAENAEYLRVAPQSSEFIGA

Structure (SMILES) | DC50 [1, 3] [nM] | DC50 [2, 5] [nM] | Dmax [2, 6] [%] | Dmax (%) H1975 # 28 DTC [1, 4] [%] | DC50 [1, 7] [nM] | Dmax (%) BaF3-LTC ([2]; BaF3-LTC cells; maximum percentage of inhibition (degradation)) [%] | DC50 [2, 8] [nM] | Dmax [2, 9] [%]
CCOc1cc(N2CCC(N3CCN(C(=O)[C@@H]4CCN(c5cccc6c5oc(=O)n6C5CCC(=O)NC5=O)C4)CC3)CC2)c(CC)cc1Nc1ncc(Br)c(Nc2ccc3nc(CC)ccc3c2P(C)(C)=O)n1 (stereo partly drawn) [Example 478, 3-(7-((R)-3-(4-(1-(4-((5-bromo-4-((5-(dimethylphosphoryl)-2-ethylquinolin-6-yl)amino)pyrimidin-2-yl)amino)-5-ethoxy-2-ethylphenyl)piperidin-4-yl)piperazine-1-carbonyl)pyrrolidin-1-yl)-2-oxobenzo[d]oxazol-3(2H)-yl)piperidine-2,6-dione] |  |  |  | 80.49 | 0.645 | 88.22 | 3.05 | 
CCc1ccc2c(P(C)(C)=O)c(Nc3nc(Nc4cc(CC)c(N5CCC(N6CCN(CCCc7ccc8c(c7)oc(=O)n8C7CCC(=O)NC7=O)CC6)CC5)cc4OC)ncc3Br)ccc2n1 (stereo not shown) [Example 456, 3-(6-(3-(4-(1-(4-((5-bromo-4-((5-(dimethylphosphoryl)-2-ethylquinolin-6-yl)amino)pyrimidin-2-yl)amino)-2-ethyl-5-methoxyphenyl)piperidin-4-yl)piperazin-1-yl)propyl)-2-oxobenzo[dloxazol-3(2H)-yl)piperidine-2,6-dione] | 0.621 | 3.56 | 89.9 | 71.36 |  |  |  | 
CCc1cc(Nc2ncc(Br)c(Nc3ccc4nc(C)ccc4c3P(C)(C)=O)n2)c(OC)cc1N1CCC(N2CCN(C(=O)C3CN(c4cccc5c4oc(=O)n5C4CCC(=O)NC4=O)C3)CC2)CC1 (stereo not shown) [Example 519, 3-(7-(3-(4-(1-(4-((5-bromo-4-((5-(dimethylphosphoryl)-2-methylquinolin-6-yl)amino)pyrimidin-2-yl)amino)-2-ethyl-5-methoxyphenyl)piperidin-4-yl)piperazine-1-carbonyl)azetidin-1-yl)-2-oxobenzo[d]oxazol-3(2H)-yl)piperidine-2,6-dione] |  |  |  | 74.38 | 0.378 |  | 1.19 | 92.1
CCc1cnc2c(P(C)(C)=O)c(Nc3nc(Nc4cc(CC)c(N5CCC(N6CCN(CCc7ccc8c(c7)oc(=O)n8C7CCC(=O)NC7=O)CC6)CC5)cc4OC)ncc3Br)ccc2n1 (stereo not shown) [Example 548, 3-(6-(2-(4-(1-(4-((5-bromo-4-((5-(dimethylphosphoryl)-2-ethylquinoxalin-6-yl)amino)pyrimidin-2-yl)amino)-2-ethyl-5-methoxyphenyl)piperidin-4-yl)piperazin-1-yl)ethyl)-2-oxobenzo[d]oxazol-3(2H)-yl)piperidine-2,6-dione] |  |  |  | 74.38 | 0.696 |  | 3.63 | 91.8
CCc1cc(Nc2ncc(Br)c(Nc3ccc4nc(C)ccc4c3P(C)(C)=O)n2)c(OC)cc1N1CCC(N2CCN(CCc3cc(F)c(C4CCC(=O)NC4=O)c(F)c3)[C@@H](C)C2)CC1 (stereo partly drawn) [Example 693, 3-(4-(2-((S)-4-(1-(4-((5-bromo-4-((5-(dimethylphosphoryl)-2-methylquinolin-6-yl)amino)pyrimidin-2-yl)amino)-2-ethyl-5-methoxyphenyl)piperidin-4-yl)-2-methylpiperazin-1-yl)ethyl)-2,6-difluorophenyl)piperidine-2,6-dione] | 0.812 | 13.8 | 84.5 | 66.27 |  |  |  | 
CCOc1cc(N2CCC(N3CCN(CCc4cccc5c4oc(=O)n5C4CCC(=O)NC4=O)CC3)CC2)c(CC)cc1Nc1ncc(Br)c(Nc2ccc3nc(CC)ncc3c2P(C)(C)=O)n1 (stereo not shown) [Example 563, 3-(7-(2-(4-(1-(4-((5-bromo-4-((5-(dimethylphosphoryl)-2-ethylquinazolin-6-yl)amino)pyrimidin-2-yl)amino)-5-ethoxy-2-ethylphenyl)piperidin-4-yl)piperazin-1-yl)ethyl)-2-oxobenzo[d]oxazol-3(2H)-yl)piperidine-2,6-dione] |  | 7.69 |  | 81.88 | 0.732 |  |  | 

Now from value to compound, other results behind:

DC50 [1, 3] [nM] | DC50 [2, 5] [nM] | Dmax [2, 6] [%] | Structure (SMILES) | Dmax (%) H1975 # 28 DTC [1, 4] [%] | DC50 [1, 7] [nM] | Dmax (%) BaF3-LTC ([2]; BaF3-LTC cells; maximum percentage of inhibition (degradation)) [%] | DC50 [2, 8] [nM] | Dmax [2, 9] [%]
1.46 | 7.11 | 96.7 | CCOc1cc(N2CCC(N3CCN(CCCc4cc(Cl)cc5c4oc(=O)n5C4CCC(=O)NC4=O)CC3)CC2)c(CC)cc1Nc1ncc(Br)c(Nc2ccc3nc(CC)ccc3c2P(C)(C)=O)n1 (stereo not shown) [Example 726, 3-(7-(3-(4-(1-(4-((5-bromo-4-((5-(dimethylphosphoryl)-2-ethylquinolin-6-yl)amino)pyrimidin-2-yl)amino)-5-ethoxy-2-ethylphenyl)piperidin-4-yl)piperazin-1-yl)propyl)-5-chloro-2-oxobenzo[d]oxazol-3(2H)-yl)piperidine-2,6-dione] | 74.13 |  |  |  | 
0.543 | 1.49 | 97.9 | CCc1ccc2c(P(C)(C)=O)c(Nc3nc(Nc4cc(CC)c(N5CCC(N6CCN(C(=O)CN7CCN(c8cc(F)c([C@H]9CCC(=O)NC9=O)c(F)c8)CC7)CC6)CC5)cc4OC)ncc3Br)ccc2n1 [Example 665, (R)-3-(4-(4-(2-(4-(1-(4-((5-bromo-4-((5-(dimethylphosphoryl)-2-ethylquinolin-6-yl)amino)pyrimidin-2-yl)amino)-2-ethyl-5-methoxyphenyl)piperidin-4-yl)piperazin-1-yl)-2-oxoethyl)piperazin-1-yl)-2,6-difluorophenyl)piperidine-2,6-dione] | 85.47 |  |  |  | 
0.64 | 6.73 |  | CCOc1cc(N2CCC(N3CCN(CCc4cc(F)c([C@H]5CCC(=O)NC5=O)c(F)c4)CC3)CC2)c(CC)cc1Nc1ncc(Br)c(Nc2ccc3nc(C)ncc3c2P(C)(C)=O)n1 [Example 738, (R)-3-(4-(2-(4-(1-(4-((5-bromo-4-((5-(dimethylphosphoryl)-2-methylquinazolin-6-yl)amino)pyrimidin-2-yl)amino)-5-ethoxy-2-ethylphenyl)piperidin-4-yl)piperazin-1-yl)ethyl)-2,6-difluorophenyl)piperidine-2,6-dione] | 84.3 |  |  |  | 
0.571 | 1.97 | 95.9 | CCc1cc(Nc2ncc(Br)c(Nc3ccc4c(=O)n(C)ncc4c3P(C)(C)=O)n2)c(OC)cc1N1CCC(N2CCN(CCc3ccc4c(c3)oc(=O)n4C3CCC(=O)NC3=O)CC2)CC1 (stereo not shown) [Example 523, 3-(6-(2-(4-(1-(4-((5-bromo-4-((5-(dimethylphosphoryl)-2-methyl-1-oxo-1,2-dihydrophthalazin-6-yl)amino)pyrimidin-2-yl)amino)-2-ethyl-5-methoxyphenyl)piperidin-4-yl)piperazin-1-yl)ethyl)-2-oxobenzo[d]oxazol-3(2H)-yl)piperidine-2,6-dione] | 72.16 |  |  |  | 
3.09 | 17.9 | 87.2 | CCOc1cc(N2CCC(N3CCN(CCC4CCN(c5cc(F)c6c(c5)n(CC)c(=O)n6C5CCC(=O)NC5=O)CC4)CC3)CC2)c(CC)cc1Nc1ncc(Br)c(Nc2ccc3c(=O)n(CC)ncc3c2P(C)(C)=O)n1 (stereo not shown) [Example 640, 3-(5-(4-(2-(4-(1-(4-((5-bromo-4-((5-(dimethylphosphoryl)-2-ethyl-1-oxo-1,2-dihydrophthalazin-6-yl)amino)pyrimidin-2-yl)amino)-5-ethoxy-2-ethylphenyl)piperidin-4-yl)piperazin-1-yl)ethyl)piperidin-1-yl)-3-ethyl-7-fluoro-2-oxo-2,3-dihydro-1H-benzo[d]imidazol-1-yl)piperidine-2,6-dione] | 85.38 |  |  |  | 
0.564 | 4.01 |  | CCOc1cc(N2CCC(N3CCN(CCc4c(F)ccc5c4n(C)c(=O)n5C4CCC(=O)NC4=O)CC3)CC2)c(CC)cc1Nc1ncc(Br)c(Nc2ccc3nc(CC)ncc3c2P(C)(C)=O)n1 (stereo not shown) [Example 736, 3-(4-(2-(4-(1-(4-((5-bromo-4-((5-(dimethylphosphoryl)-2-ethylquinazolin-6-yl)amino)pyrimidin-2-yl)amino)-5-ethoxy-2-ethylphenyl)piperidin-4-yl)piperazin-1-yl)ethyl)-5-fluoro-3-methyl-2-oxo-2,3-dihydro-1H-benzol[d]imidazol-1-yl)piperidine-2,6-dione] | 81.93 |  |  |  | 
0.863 | 3.96 | 89.7 | CCc1ccc2c(P(C)(C)=O)c(Nc3nc(Nc4cc(CC)c(N5CCC(N6CCN(CCc7c(F)ccc8c7n(C)c(=O)n8C7CCC(=O)NC7=O)CC6)CC5)cc4OC)ncc3Br)ccc2n1 (stereo not shown) [Example 452, 3-(4-(2-(4-(1-(4-((5-bromo-4-((5-(dimethylphosphoryl)-2-ethylquinolin-6-yl)amino)pyrimidin-2-yl)amino)-2-ethyl-5-methoxyphenyl)piperidin-4-yl)piperazin-1-yl)ethyl)-5-fluoro-3-methyl-2-oxo-2,3-dihydro-1H-benzo[d]imidazol-1-yl)piperidine-2,6-dione] | 78.26 |  |  |  | 
